According to the NIST ThermoML archive (doi:10.1016/j.jct.2016.07.008):
Numbers after ± are expanded uncertainties.

Experiment: xn = mol fraction of the nth substance listed
Conditions: Liquid, Vibrating wire viscometry, x1 = 1

For `CCCCO` [butan-1-ol] + Cc1ccc(C)c(C)c1, the viscosity (293.15 K, 100 kPa) was 2.969 ± 0.047 mPa·s, the viscosity (293.15 K, 1000 kPa) was 3.001 ± 0.048 mPa·s and the viscosity (293.15 K, 5000 kPa) was 3.108 ± 0.049 mPa·s. For the same compound, the viscosity (293.15 K, 10000 kPa) was 3.244 ± 0.052 mPa·s, the viscosity (293.15 K, 20000 kPa) was 3.479 ± 0.055 mPa·s and the viscosity (293.15 K, 30000 kPa) was 3.788 ± 0.06 mPa·s. For the same compound, the viscosity (293.15 K, 40000 kPa) was 4.078 ± 0.065 mPa·s, the viscosity (293.15 K, 50000 kPa) was 4.401 ± 0.07 mPa·s and the viscosity (293.15 K, 60000 kPa) was 4.74 ± 0.075 mPa·s. For the same compound, the viscosity (293.15 K, 70000 kPa) was 5.076 ± 0.08 mPa·s, the viscosity (293.15 K, 80000 kPa) was 5.438 ± 0.086 mPa·s and the viscosity (293.15 K, 100000 kPa) was 6.164 ± 0.097 mPa·s. The viscosity (293.15 K, 120000 kPa) was 6.979 ± 0.11 mPa·s, the viscosity (293.15 K, 140000 kPa) was 7.843 ± 0.12 mPa·s and the viscosity (298.15 K, 100 kPa) was 2.601 ± 0.042 mPa·s. It also gave a viscosity (298.15 K, 1000 kPa) of 2.622 ± 0.042 mPa·s, a viscosity (298.15 K, 5000 kPa) of 2.715 ± 0.043 mPa·s and a viscosity (298.15 K, 10000 kPa) of 2.834 ± 0.045 mPa·s. For the same compound, the viscosity (298.15 K, 20000 kPa) was 3.079 ± 0.049 mPa·s, the viscosity (298.15 K, 30000 kPa) was 3.333 ± 0.053 mPa·s and the viscosity (298.15 K, 40000 kPa) was 3.599 ± 0.057 mPa·s. It also gave a viscosity (298.15 K, 50000 kPa) of 3.874 ± 0.061 mPa·s, a viscosity (298.15 K, 60000 kPa) of 4.16 ± 0.066 mPa·s and a viscosity (298.15 K, 70000 kPa) of 4.455 ± 0.071 mPa·s. It also gave a viscosity (298.15 K, 80000 kPa) of 4.761 ± 0.075 mPa·s, a viscosity (298.15 K, 100000 kPa) of 5.404 ± 0.085 mPa·s and a viscosity (298.15 K, 120000 kPa) of 6.087 ± 0.096 mPa·s. It also gave a viscosity (298.15 K, 140000 kPa) of 6.811 ± 0.11 mPa·s, a viscosity (313.15 K, 100 kPa) of 1.797 ± 0.029 mPa·s and a viscosity (313.15 K, 1000 kPa) of 1.813 ± 0.029 mPa·s. It also gave a viscosity (313.15 K, 5000 kPa) of 1.89 ± 0.03 mPa·s, a viscosity (313.15 K, 10000 kPa) of 1.967 ± 0.032 mPa·s and a viscosity (313.15 K, 20000 kPa) of 2.14 ± 0.034 mPa·s. For the same compound, the viscosity (313.15 K, 30000 kPa) was 2.319 ± 0.037 mPa·s, the viscosity (313.15 K, 40000 kPa) was 2.48 ± 0.04 mPa·s and the viscosity (313.15 K, 50000 kPa) was 2.629 ± 0.042 mPa·s. It also gave a viscosity (313.15 K, 60000 kPa) of 2.852 ± 0.045 mPa·s, a viscosity (313.15 K, 70000 kPa) of 3.089 ± 0.049 mPa·s and a viscosity (313.15 K, 80000 kPa) of 3.247 ± 0.052 mPa·s. The viscosity (313.15 K, 100000 kPa) was 3.686 ± 0.058 mPa·s, the viscosity (313.15 K, 120000 kPa) was 4.192 ± 0.066 mPa·s and the viscosity (313.15 K, 140000 kPa) was 4.638 ± 0.073 mPa·s. It also gave a viscosity (323.15 K, 100 kPa) of 1.429 ± 0.023 mPa·s, a viscosity (323.15 K, 1000 kPa) of 1.44 ± 0.024 mPa·s and a viscosity (323.15 K, 5000 kPa) of 1.491 ± 0.024 mPa·s. The viscosity (323.15 K, 10000 kPa) was 1.556 ± 0.025 mPa·s, the viscosity (323.15 K, 20000 kPa) was 1.69 ± 0.027 mPa·s and the viscosity (323.15 K, 30000 kPa) was 1.829 ± 0.03 mPa·s. It also gave a viscosity (323.15 K, 40000 kPa) of 1.975 ± 0.032 mPa·s, a viscosity (323.15 K, 50000 kPa) of 2.125 ± 0.034 mPa·s and a viscosity (323.15 K, 60000 kPa) of 2.281 ± 0.037 mPa·s. The viscosity (323.15 K, 70000 kPa) was 2.443 ± 0.039 mPa·s, the viscosity (323.15 K, 80000 kPa) was 2.61 ± 0.042 mPa·s and the viscosity (323.15 K, 100000 kPa) was 2.962 ± 0.047 mPa·s. It also gave a viscosity (323.15 K, 120000 kPa) of 3.335 ± 0.053 mPa·s, a viscosity (323.15 K, 140000 kPa) of 3.682 ± 0.058 mPa·s and a viscosity (333.15 K, 100 kPa) of 1.156 ± 0.019 mPa·s. The viscosity (333.15 K, 1000 kPa) was 1.172 ± 0.019 mPa·s, the viscosity (333.15 K, 5000 kPa) was 1.227 ± 0.02 mPa·s and the viscosity (333.15 K, 10000 kPa) was 1.29 ± 0.021 mPa·s. The viscosity (333.15 K, 20000 kPa) was 1.389 ± 0.023 mPa·s, the viscosity (333.15 K, 30000 kPa) was 1.504 ± 0.025 mPa·s and the viscosity (333.15 K, 40000 kPa) was 1.624 ± 0.026 mPa·s. It also gave a viscosity (333.15 K, 50000 kPa) of 1.741 ± 0.028 mPa·s, a viscosity (333.15 K, 60000 kPa) of 1.867 ± 0.03 mPa·s and a viscosity (333.15 K, 70000 kPa) of 2.014 ± 0.032 mPa·s. For the same compound, the viscosity (333.15 K, 80000 kPa) was 2.137 ± 0.034 mPa·s, the viscosity (333.15 K, 100000 kPa) was 2.384 ± 0.038 mPa·s and the viscosity (333.15 K, 120000 kPa) was 2.633 ± 0.042 mPa·s. For the same compound, the viscosity (333.15 K, 140000 kPa) was 2.883 ± 0.046 mPa·s, the viscosity (348.15 K, 100 kPa) was 0.8579 ± 0.015 mPa·s and the viscosity (348.15 K, 1000 kPa) was 0.8647 ± 0.015 mPa·s. It also gave a viscosity (348.15 K, 5000 kPa) of 0.8956 ± 0.015 mPa·s, a viscosity (348.15 K, 10000 kPa) of 0.9349 ± 0.016 mPa·s and a viscosity (348.15 K, 20000 kPa) of 1.016 ± 0.017 mPa·s. For the same compound, the viscosity (348.15 K, 30000 kPa) was 1.101 ± 0.018 mPa·s, the viscosity (348.15 K, 40000 kPa) was 1.189 ± 0.02 mPa·s and the viscosity (348.15 K, 50000 kPa) was 1.28 ± 0.021 mPa·s. For the same compound, the viscosity (348.15 K, 60000 kPa) was 1.375 ± 0.023 mPa·s, the viscosity (348.15 K, 70000 kPa) was 1.473 ± 0.024 mPa·s and the viscosity (348.15 K, 80000 kPa) was 1.575 ± 0.026 mPa·s. It also gave a viscosity (348.15 K, 100000 kPa) of 1.788 ± 0.029 mPa·s, a viscosity (348.15 K, 120000 kPa) of 2.015 ± 0.032 mPa·s and a viscosity (348.15 K, 140000 kPa) of 2.255 ± 0.036 mPa·s. It also gave a viscosity (353.15 K, 100 kPa) of 0.7903 ± 0.014 mPa·s, a viscosity (353.15 K, 1000 kPa) of 0.7943 ± 0.014 mPa·s and a viscosity (353.15 K, 5000 kPa) of 0.8284 ± 0.014 mPa·s. For the same compound, the viscosity (353.15 K, 10000 kPa) was 0.8637 ± 0.015 mPa·s, the viscosity (353.15 K, 20000 kPa) was 0.9473 ± 0.016 mPa·s and the viscosity (353.15 K, 30000 kPa) was 1.04 ± 0.017 mPa·s. The viscosity (353.15 K, 40000 kPa) was 1.102 ± 0.018 mPa·s, the viscosity (353.15 K, 50000 kPa) was 1.21 ± 0.02 mPa·s and the viscosity (353.15 K, 60000 kPa) was 1.295 ± 0.021 mPa·s. The viscosity (353.15 K, 70000 kPa) was 1.384 ± 0.023 mPa·s, the viscosity (353.15 K, 80000 kPa) was 1.473 ± 0.024 mPa·s and the viscosity (353.15 K, 100000 kPa) was 1.676 ± 0.027 mPa·s. For the same compound, the viscosity (353.15 K, 120000 kPa) was 1.857 ± 0.03 mPa·s and the viscosity (353.15 K, 140000 kPa) was 2.037 ± 0.033 mPa·s.
